Experimental data published in patent US12528837B2, “Aryl substituted polymyxin derivatives” (priority 2018, dated 2026).
In brackets after ≈: the same amount, converted by molar mass. Like-named read-outs stand apart in the source and are kept apart here. Where a SMILES comes first, the peptide text is derived from it. Bridges are numbered along the chain shown (N, C = ends). [ ]: non-standard residue; d: D form. The star is where a group is joined. X16 = NC[C@H](CC(=O)*)Cc1cccc(Cl)c1; X15 = NC[C@@H](CC(=O)*)c1ccccc1Cl; X11 = NC[C@H](CC(=O)*)c1ccccc1Cl; Dab = NCC[C@H](N)C(=O)O; Dap = NC[C@H](N)C(=O)O

Tests used:
Assay type in all cases: cell-based
E. coli CA58 = test system: E. coli CA58
Protocol: (§1) The inoculum was prepared by making a direct suspension of isolated colonies (selected from an 18-24 hour Mueller-Hinton agar plate) adjusted to the 0.5 McFarland standard. […] The assays were performed in duplicate. […] Several of the compounds were subjected to multiple tests, and where this is the case, the MIC presented is the median value obtained. The MIC values are quoted in μg/mL.

K. pneumoniae CA64 = test system: K. pneumoniae CA64
Protocol: as §1

P. aeruginosa CCUG 59347 = test system: P. aeruginosa CCUG 59347
Protocol: as §1

[1] = test system: A. baumannii ATCC BAA-747
Protocol: (§2) The inoculum was prepared by making a direct suspension of isolated colonies (selected from an 18-24 hour Mueller-Hinton agar plate) adjusted to the 0.5 McFarland standard. […] The assays were performed in duplicate. […] The MIC values are quoted in μg/mL.

A. baumannii NCTC 13424 = test system: A. baumannii NCTC 13424
Protocol: as §2

E. coli ATCC 25922 = test system: E. coli ATCC 25922
Protocol: as §2

K. pneumoniae ATCC 13822 = test system: K. pneumoniae ATCC 13822
Protocol: as §2

P. aeruginosa ATCC 27853 = conditions: cation-adjusted Mueller-Hinton Broth, 18-20 h, 35° C.
Protocol: as §2

[2] = cation-adjusted Mueller-Hinton Broth, 18-20 h, 35° C.

| Structure (SMILES) | MIC E. coli CA58 (E. coli CA58; [2]) | MIC K. pneumoniae CA64 (K. pneumoniae CA64; [2]) | MIC P. aeruginosa CCUG 59347 (P. aeruginosa CCUG 59347; [2]) | MIC A. baumannii ATCC BAA-747 [1, 2] | MIC A. baumannii NCTC 13424 (A. baumannii NCTC 13424; [2]) | MIC E. coli ATCC 25922 (E. coli ATCC 25922; [2]) | MIC K. pneumoniae ATCC 13822 (K. pneumoniae ATCC 13822; [2]) | MIC P. aeruginosa ATCC 27853 (P. aeruginosa ATCC 27853) | MIC E. coli CA58 (E. coli CA58; CA58) | MIC K. pneumoniae CA64 (K. pneumoniae CA64; CA64) | MIC P. aeruginosa CCUG 59347 (P. aeruginosa CCUG 59347; CCUG 59347) | MIC A. baumannii ATCC BAA-747 ([1]; ATCC BAA-747) | MIC A. baumannii NCTC 13424 (A. baumannii NCTC 13424; NCTC 13424) | MIC E. coli ATCC 25922 (E. coli ATCC 25922; ATCC 25922) | MIC K. pneumoniae ATCC 13822 (K. pneumoniae ATCC 13822; ATCC 13822) |
| --- | --- | --- | --- | --- | --- | --- | --- | --- | --- | --- | --- | --- | --- | --- | --- |
| CC(C)C[C@@H]1NC(=O)[C@@H](Cc2ccccc2)NC(=O)[C@H](CCN)NC(=O)[C@@H](NC(=O)[C@H](CN)NC(=O)[C@@H](NC(=O)C[C@H](CN)c2ccccc2Cl)[C@@H](C)O)CCNC(=O)[C@H]([C@@H](C)O)NC(=O)[C@H](CCN)NC(=O)[C@H](CCN)NC1=O [Example 3, (S)-4-amino-3-(2- chlorophenyl)butanoyl- Thr-Dap-Cyclo[Dab- Dab-DPhe-Leu-Dab- Dab-Thr]] (X15-T[Dap][Dab][Dab][dF]L[Dab][Dab]T; lactam 3-C) | 32 µg/mL (≈ 28 µM) | 65 µg/mL (≈ 56.8 µM) | 0.5 µg/mL (≈ 0.437 µM) | 2 µg/mL (≈ 1.75 µM) | 1 µg/mL (≈ 0.874 µM) | 1 µg/mL (≈ 0.874 µM) | 0.5 µg/mL (≈ 0.437 µM) | 0.5 µg/mL (≈ 0.437 µM) |  |  |  |  |  |  |  |
| CC(C)C[C@@H]1NC(=O)[C@@H](Cc2ccccc2)NC(=O)[C@H](CCN)NC(=O)[C@@H](NC(=O)[C@H](CN)NC(=O)[C@@H](NC(=O)C[C@@H](CN)c2ccccc2Cl)[C@@H](C)O)CCNC(=O)[C@H]([C@@H](C)O)NC(=O)[C@H](CCN)NC(=O)[C@H](CCN)NC1=O [Example 4, (R)-4-amino-3-(2- chlorophenyl)butanoyl- Thr-Dap-Cyclo[Dab- Dab-DPhe-Leu-Dab- Dab-Thr]] (X11-T[Dap][Dab][Dab][dF]L[Dab][Dab]T; lactam 3-C) | 16 µg/mL (≈ 14 µM) | 16 µg/mL (≈ 14 µM) | 0.5 µg/mL (≈ 0.437 µM) | 1 µg/mL (≈ 0.874 µM) | 1 µg/mL (≈ 0.874 µM) | 0.5 µg/mL (≈ 0.437 µM) | 0.25 µg/mL (≈ 0.218 µM) | 0.25 µg/mL (≈ 0.218 µM) |  |  |  |  |  |  |  |
| CC(C)C[C@@H]1NC(=O)[C@@H](Cc2ccccc2)NC(=O)[C@H](CCN)NC(=O)[C@@H](NC(=O)[C@H](CN)NC(=O)[C@@H](NC(=O)C[C@@H](CN)Cc2cccc(Cl)c2)[C@@H](C)O)CCNC(=O)[C@H]([C@@H](C)O)NC(=O)[C@H](CCN)NC(=O)[C@H](CCN)NC1=O [Example 12, (S)-4-amino-3-(3- chlorobenzyl)butanoyl- Thr-Dap-Cyclo[Dab- Dab-DPhe-Leu-Dab- Dab-Thr]. Isomer 2] (X16-T[Dap][Dab][Dab][dF]L[Dab][Dab]T; lactam 3-C) |  |  |  |  |  |  |  |  | 4 µg/mL (≈ 3.45 µM) | 8 µg/mL (≈ 6.9 µM) | 0.5 µg/mL (≈ 0.431 µM) | 0.25 µg/mL (≈ 0.216 µM) | 0.25 µg/mL (≈ 0.216 µM) | 0.5 µg/mL (≈ 0.431 µM) | 0.5 µg/mL (≈ 0.431 µM) |
